Activity calls are given as the source filed them. No cut-off for these calls is given here.
Biological target: Tubulin (Sus scrofa) (UniProt P02554+P02550)
Test: Inhibition of porcine tubulin polymerization at 3 uM incubated for 1 min by fluorescence based assay
Format: protein assay

Sequence of Tubulin (Sus scrofa) (P02550 whole entry, looked up): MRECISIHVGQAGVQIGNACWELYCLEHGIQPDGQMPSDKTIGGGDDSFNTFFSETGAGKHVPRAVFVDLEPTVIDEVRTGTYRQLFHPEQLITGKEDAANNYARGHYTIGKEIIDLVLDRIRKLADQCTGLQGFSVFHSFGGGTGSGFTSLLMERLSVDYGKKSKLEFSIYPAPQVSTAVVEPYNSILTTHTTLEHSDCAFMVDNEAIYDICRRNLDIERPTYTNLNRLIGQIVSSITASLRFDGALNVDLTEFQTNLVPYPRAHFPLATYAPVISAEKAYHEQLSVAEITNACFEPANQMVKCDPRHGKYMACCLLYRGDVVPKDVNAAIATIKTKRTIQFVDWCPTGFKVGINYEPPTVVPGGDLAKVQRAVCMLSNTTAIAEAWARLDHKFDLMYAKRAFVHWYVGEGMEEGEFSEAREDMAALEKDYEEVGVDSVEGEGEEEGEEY
Sequence of Tubulin (Sus scrofa) (P02554 whole entry, looked up): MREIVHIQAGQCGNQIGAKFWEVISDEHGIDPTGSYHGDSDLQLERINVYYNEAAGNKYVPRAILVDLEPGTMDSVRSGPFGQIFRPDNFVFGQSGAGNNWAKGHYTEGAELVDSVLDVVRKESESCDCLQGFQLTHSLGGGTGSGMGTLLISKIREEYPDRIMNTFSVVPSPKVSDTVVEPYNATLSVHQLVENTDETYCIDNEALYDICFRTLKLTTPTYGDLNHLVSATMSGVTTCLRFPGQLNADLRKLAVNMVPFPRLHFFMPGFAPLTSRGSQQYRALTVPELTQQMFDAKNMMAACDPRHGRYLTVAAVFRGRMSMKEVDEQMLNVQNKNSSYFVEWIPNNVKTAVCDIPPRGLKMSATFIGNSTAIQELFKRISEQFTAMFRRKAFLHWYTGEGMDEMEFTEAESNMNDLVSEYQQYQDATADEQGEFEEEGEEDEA

| inhibition | Compound |
| --- | --- |
| Active | CC[C@]1(O)C[C@@H]2CN(CCc3c([nH]c4ccccc34)[C@@](C(=O)OC)(c3cc4c(cc3OC)N(C)[C@H]3[C@@](O)(C(=O)OC)[C@H](OC(C)=O)[C@]5(CC)C=CCN6CC[C@]43[C@@H]65)C2)C1 |
| inactive | CC(=O)O[C@H]1C(=O)[C@@]2(C)[C@H]([C@H](OC(=O)c3ccccc3)[C@]3(O)C[C@H](OC(=O)[C@H](O)[C@@H](NC(=O)c4ccccc4)c4ccccc4)C(C)=C1C3(C)C)[C@]1(OC(C)=O)CO[C@@H]1C[C@@H]2O |
